The source of these data is PubChem BioAssay AID1159557 (GlaxoSmithKline (GSK), 2015).

The source made the active and inactive calls. No rule for the calls is given here.

By IC50 is commonly meant the concentration needed to halve the response being measured.

The assay has as its system Trypanosoma brucei growth inhibition. Description: trypanosome proliferation inhibitors (AID 1159557).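 Also: parasites exposed to compound for 48 h before the resazurin readout.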
On to `CN(C(=O)Nc1ccc2c(c1)CCN(C1CCC1)CC2)c1ccc(C#N)cc1`, for which the IC50 is 0.2 µM.

Regarding `C=CCN(Cc1cccs1)C(=O)CSc1nnc(-c2ccc3c(c2)OCO3)o1`, the IC50 was 20 µM.

For the molecule `N#Cc1ccc(S(=O)(=O)N2CCC3(CCN(c4ccccc4)C3=O)CC2)cc1`, the IC50 is > 40 µM (inactive).

Regarding `O=C(Nc1ccc(Br)cn1)c1ccc(Cn2cnc([N+](=O)[O-])n2)cc1`, the IC50 was 1.6 µM.

With `COCc1cnc2c(c1SCc1c(F)cccc1Cl)c(=O)n(C)c(=O)n2C`, the IC50 is 4 µM.

In the case of `O=C(NCC1CCCCC1)c1cc(=O)c2ccccc2o1`, the IC50 is 1 µM.

For the molecule `NS(=O)(=O)c1ccc(Nc2ncc3cccc(OC4CCNCC4)c3n2)cc1`, the IC50 was 0.2 µM.

With `N#Cc1ccc(Br)cc1[N+](=O)[O-]`, the IC50 is 0.16 µM.

Turning to `COc1ccc(S(=O)(=O)Nc2ccc(C(=O)Nc3nc(-c4ccccn4)cs3)cc2)cc1`, the IC50 is 0.79 µM.

`O=C(NCC1CCCCN1C(=O)c1cccc2ccccc12)c1ccccc1` (configuration not stated): the IC50 was 0.4 µM.

For the molecule `Cc1c(C(=O)NCCCCn2ccnc2)oc2c(C)cccc12`, the IC50 is 20 µM.

Regarding `CCCCn1nnnc1CSc1nc(C)cc(C)c1C#N`, the IC50 was > 40 µM (inactive).

Take `CN1C(=O)c2ccccc2Sc2ccc(NC(=O)NCc3ccco3)cc21`: the IC50 is 0.4 µM.

Regarding `O=C(CSc1nnc2ccc(-c3ccc(F)cc3)nn12)N1CCCCC1`, the IC50 is 0.4 µM.

For `CCCc1cc(N)nc(-c2cc(CCC)cc(N)n2)c1`, the IC50 was 3.2 µM.

Consider `COc1ccccc1-n1c(SCC(=O)Nc2ccc3c(c2)OCO3)nc2c(c1=O)SCC2`, for which the IC50 was > 40 µM (inactive).

With `COc1ncc(-c2ccc3ncnc(N4CCOCC4)c3c2)cc1NS(C)(=O)=O`, the IC50 was 0.32 µM.

As to `COc1ccc(CNc2nsc3ccccc23)cc1OC`, the IC50 is 7.9 µM.

On to `O=C(Nc1ccccc1C(=O)Nc1ccccn1)c1ccco1`, for which the IC50 is 0.25 µM.

As for `O=C(NCCc1ccccn1)C(c1cn[nH]c1)N1CCN(c2ccc(Cl)c(Cl)c2)CC1` (configuration not stated), the IC50 is 13 µM.

As to `COc1ccc2ncc(F)c(NC(=O)C3(O)CCC(NCc4ccc5c(c4)OCCO5)CC3)c2n1` (configuration not stated), the IC50 was 0.79 µM.

Take `COc1ccc(Nc2nccc(N(C)c3n[nH]c4c(F)cccc34)n2)cc1S(C)(=O)=O`: the IC50 is 6.3 µM.

On to `CC(Cn1ccnc1)NC(=O)C1CC1c1cccc(Cl)c1Cl` (configuration not stated), for which the IC50 is > 40 µM (inactive).

Turning to `N#Cc1cc(-c2ccnc(Nc3cccc(CN4CCOCC4)c3)n2)ccc1NCCN`, the IC50 is 0.4 µM.

For `CCN(Cc1ccncc1)Cc1ccc(NC(=O)c2cc(-c3ccc(F)cc3)n[nH]2)cc1`, the IC50 was > 40 µM (inactive).

On to `Oc1c(-c2n[nH]c(CCc3ccccc3)n2)ncc2cccnc12`, for which the IC50 was 0.79 µM.

Regarding `CCN(CC)S(=O)(=O)c1ccc(C)c(NC(=O)c2cc(Cl)c3c(c2)OCO3)c1`, the IC50 was 0.32 µM.

On to `O=C(Cn1cnc([N+](=O)[O-])n1)Nc1ccc(Cl)cc1C(=O)c1ccccc1`, for which the IC50 was 20 µM.

`Cn1nc(-c2ccc(NC(=O)Cc3ccccc3Cl)cc2)c2c(N)ncnc21`: the IC50 is 0.4 µM.

`Cn1nc([N+](=O)[O-])nc1N1CCCCC1`: the IC50 was > 40 µM (inactive).

For `CN(Cc1cccnc1)Cc1ccc(N2CCN(C(=O)C3(c4ccc(Cl)cc4)CC3)CC2)nc1`, the IC50 is 32 µM.

Consider `Cc1ccc(NC(=O)C(C)n2nc([N+](=O)[O-])c(Br)c2C)cc1Cl` (configuration not stated), for which the IC50 is 16 µM.

In the case of `Cc1cc(-c2cccc3ccccc23)nc2nc(N)nc(N)c12`, the IC50 is 32 µM.

In the case of `COCc1cc(Nc2ccc(Cl)cc2)nc(-c2ccccn2)n1`, the IC50 was 20 µM.

Consider `CN(C)c1ccc(N)cc1CN(CC1CCCO1)S(C)(=O)=O` (configuration not stated), for which the IC50 was > 40 µM (inactive).

For `O=c1cc(NCCCNC2CCOc3c(I)cc(Cl)cc32)[nH]c2ccccc12` (configuration not stated), the IC50 is 0.01 µM.

Regarding `NC(=O)c1ncc(N[C@@H]2CCCNC2)nc1Nc1cccc(Cl)c1`, the IC50 was 0.13 µM.

On to `CC(C)(C)CC(=O)NCc1noc(COc2ccccc2)n1`, for which the IC50 is 0.63 µM.

Consider `Oc1cccnc1-c1n[nH]c(Cc2ccccc2)n1`, for which the IC50 is 5 µM.

Take `COc1cc(-c2noc(CC#N)n2)ccc1OC(F)F`: the IC50 is 0.63 µM.

With `NS(=O)(=O)c1ccc(Nc2nccc(-c3cnn4ncccc34)n2)cc1`, the IC50 is 0.079 µM.

On to `O=c1[nH]c(C=Cc2cccc(OCCOc3ccccc3)c2)nc(O)c1[N+](=O)[O-]`, for which the IC50 is 10 µM.

For `O=C(CN(Cc1ccccn1)Cc1ccccn1)NCc1ccc2c(c1)OCO2`, the IC50 was 6.3 µM.

With `COc1cc(Cl)c(C)cc1NC(=O)c1ccc([N+](=O)[O-])s1`, the IC50 is 0.5 µM.

As to `Cc1ccccc1CNC(=O)CN(Cc1ccccn1)Cc1ccccn1`, the IC50 is 6.3 µM.

As for `CCn1c(-c2nonc2N)nc2c([C@@H](C)O)ncc(O[C@H](CN)c3ccccc3)c21`, the IC50 was 0.63 µM.

With `COc1ccc(-c2csc(NC(=O)c3ccc([N+](=O)[O-])s3)n2)cc1OC`, the IC50 is 0.13 µM.

On to `CC1(Oc2cncc(Cl)c2)CCN(Cc2cc3ccccc3[nH]2)C1` (configuration not stated), for which the IC50 was > 40 µM (inactive).

Turning to `CC(=O)Nc1ccc(-c2noc(CC3CCCN(Cc4cccc(F)c4C)C3)n2)cc1` (configuration not stated), the IC50 was 20 µM.

On to `CCN(CC)c1nc(Nc2ccncc2)nc2ccccc12`, for which the IC50 was 2.5 µM.

On to `CN(Cc1nnnn1C1CCN(Cc2ccc(-n3ccnc3)cc2)CC1)c1ccc(F)cc1F`, for which the IC50 is > 40 µM (inactive).

Take `O=C(CN1CCN(c2ccccn2)CC1)Nc1cc(S(=O)(=O)N2CCCCCC2)ccc1Cl`: the IC50 was 13 µM.

In the case of `c1ccc(Nc2nc(-c3ccccn3)cc(N3CCOCC3)n2)cc1`, the IC50 was 16 µM.

As to `Cc1cc(C)n(-c2nc(NC(C)(C)C)nc(N3CCOCC3)n2)n1`, the IC50 was 13 µM.

For `Cc1cc(C)cc(NS(=O)(=O)c2cc(-c3cc(C)[nH]n3)ccc2C)c1`, the IC50 was 1 µM.

Take `Cc1nc(-c2ccc3c(c2)OCO3)sc1C(=O)NCc1ccc2c(c1)OCO2`: the IC50 was 10 µM.

In the case of `Cc1nc2c(-c3nc(-c4ccc(N)cc4)n[nH]3)cccn2c1C`, the IC50 is 13 µM.

Turning to `O=C(CN(Cc1ccccn1)Cc1ccccn1)NCc1ccc(-c2csnn2)cc1`, the IC50 is 13 µM.

Regarding `Cn1ccnc1CN1CCc2[nH]cnc2C1c1ccccc1OCc1ccccc1` (configuration not stated), the IC50 was 0.4 µM.

In the case of `Cc1ccc(NC(=O)c2ccc(Cl)c(NC(=O)c3ccc([N+](=O)[O-])cc3)c2)cc1`, the IC50 was 7.9 µM.

Consider `Cc1cnc(Nc2cc(Cc3ccccc3)nc(NC3CCC(O)CC3)n2)s1` (configuration not stated), for which the IC50 is 0.025 µM.

`CCC(=O)N1N=C(c2ccc3c(c2)CCCC3)Sc2c1ncn2C(=O)CC`: the IC50 was 16 µM.

In the case of `CCCn1c(NC(=O)CCn2cc(Br)cn2)nc2ccccc21`, the IC50 is 7.9 µM.

As for `O=C(NCCCn1cnc2ccccc21)c1ccc(NC(=O)c2ccco2)cc1`, the IC50 is 0.2 µM.

As for `O=c1[nH]ccc2ccc(-c3ccncc3)cc12`, the IC50 was 32 µM.

With `COc1ccc(C2CC(c3ccc(NS(C)(=O)=O)cc3)=NN2C(=O)c2cccs2)cc1OC` (configuration not stated), the half-inhibitory concentration (IC50) was 16 µM.

Take `COc1ccc(OC)c(S(=O)(=O)N(Cc2c(F)cccc2F)[C@@H]2CCN(C#N)C2)c1`: the IC50 is 0.63 µM.

As to `Cc1ncsc1CNc1cnc(-c2ccc3c(c2)OCCO3)c(-c2cnn(C)c2)c1`, the IC50 is 0.13 µM.

On to `Cc1nc(C(=O)Nc2ccc3c(c2)OCO3)nn1-c1ccc(Cl)cc1`, for which the IC50 was > 40 µM (inactive).

As to `CNS(=O)(=O)c1ccccc1Nc1nc(Nc2ccnn2C)ncc1Cl`, the IC50 is 0.063 µM.

Regarding `CNS(=O)(=O)c1ccccc1Nc1nc(Nc2cc(C)nn2C)ncc1Cl`, the IC50 was 0.063 µM.

For the molecule `CCCc1cc(C(=O)Nc2ncc(-c3cccc(Br)c3)n2C)n[nH]1`, the IC50 is 2.5 µM.

Turning to `NS(=O)(=O)c1ccc(CNC(=O)c2ccc([N+](=O)[O-])s2)cc1`, the 50% inhibitory concentration (IC50) was 0.25 µM.

In the case of `CCCC(=O)N(Cc1ccccn1)c1nc2ccccc2s1`, the IC50 was 20 µM.

As to `O=c1ccc2ccc(F)c3c2n1C[C@H]3CN1CCC(NCc2cc3ccccc3o2)CC1`, the IC50 is 0.63 µM.

In the case of `COc1ccccc1CNc1cc(C2CC2)nc(-c2nccn2C)n1`, the IC50 is 2.5 µM.

As for `CC(c1cc(Cl)cc(Cl)c1)N(C)c1ncc2c(N)nc(N)nc2n1` (configuration not stated), the IC50 was > 40 µM (inactive).

As for `Cc1c(CNC(=O)c2ccc(Cn3cc(Cl)c([N+](=O)[O-])n3)cc2)cnn1C`, the IC50 was 5 µM.

On to `Cc1cc(C#N)c([N+](=O)[O-])cc1Br`, for which the IC50 was 0.79 µM.

Consider `COc1ccc(-c2nc3ccncc3c(=O)n2CCOc2ccccc2)cc1`, for which the IC50 was 25 µM.

For `O=[N+]([O-])c1ccc(-c2nnn(-c3cccnc3)n2)o1`, the IC50 was 0.32 µM.

On to `O=C(CN(Cc1ccccn1)Cc1ccccn1)NCc1csc(-c2cccs2)n1`, for which the IC50 was 20 µM.

Regarding `CC(=O)Nc1ccc(-c2ccnc(Nc3cccc(C#N)c3)n2)cc1`, the IC50 was 0.63 µM.

As to `CCC(CC)C(=O)Nc1ccc(-c2nnc(-c3ccc(OC)cc3)o2)cc1`, the IC50 is 0.5 µM.

With `Cc1cccnc1NC(=O)c1cccc(OCc2c(C)noc2C)c1`, the IC50 was 0.4 µM.

On to `CCN(CC)c1ccc(S(=O)(=O)N(CC)CC)c2nonc12`, for which the IC50 is 25 µM.

Turning to `N#Cc1ccc(S(=O)(=O)N2CCN(Cc3cccc(-c4ccncc4)c3)CC2)cc1`, the IC50 was > 40 µM (inactive).

On to `COc1ccc(C(C)(C)C)cc1S(=O)(=O)n1ccnc1`, for which the IC50 is 40 µM.

Regarding `CN(C)S(=O)(=O)c1cccc(CSc2nnc(-c3ccc4c(c3)OCO4)o2)c1`, the IC50 is 32 µM.

With `O=C(Nc1ncc([N+](=O)[O-])s1)C1CC1`, the IC50 is 7.9 µM.

For `O=[N+]([O-])c1ccc(-c2nnn(-c3ccc(Cl)cc3)n2)o1`, the IC50 is 0.32 µM.

Turning to `Cc1cc2nc(N3CC[C@H]3C(N)=O)nc(Nc3cc(C4CC4)[nH]n3)c2s1`, the IC50 is 0.079 µM.

As to `CS(=O)(=O)c1ccc(CC(=O)Nc2nc(-c3ccc(Cl)s3)cs2)cc1`, the IC50 was 10 µM.

For `Nc1ncnc2c1ncn2[C@@H]1O[C@H](CO)C[C@H]1O`, the IC50 was 0.013 µM.

Take `CCOC(=O)c1noc(N)c1-c1ccccc1`: the IC50 is 0.63 µM.

On to `C[C@@H](Oc1cc(-n2cnc3cc(N)ccc32)sc1C(N)=O)c1ccccc1Cl`, for which the IC50 was 0.25 µM.

Turning to `O=C(c1cccc(Nc2ncc(-c3ccc4c(c3)OCO4)cn2)c1)N1CCOCC1`, the IC50 is 25 µM.
